{
  "source": "patent US20160193148A1",
  "about": "“LIPOSOMAL FORMULATIONS FOR THE TREATMENT OF BACTERIAL INFECTIONS” (UNIVERSITY OF GEORGIA RESEARCH FOUNDATION, INC., priority 2013, published 2016)",
  "assay": "Repeated dose IV LG or FG: indices of renal injury and tolerability in foals",
  "protocol": "Subsequently, twelve healthy foals were administered either LG or FG at 6.6 mg/kg IV q 24 hours for 7 doses, and urinary protein, creatinine, γ-glutamyltransferase, and electrolytes were measured on days 0, 3 and 7 to quantify renal injury. Concentrations of gentamicin were measured using HPLC-MS.\nEach dose was diluted in 250 ml of sterile 0.9% saline and administered over 15 minutes via an indwelling 14 G catheter placed in a jugular vein. Blood samples for plasma separation and measurement of gentamicin concentrations were obtained on day 1 and on day 7 at the times listed for study 1. Bronchoalveolar lavage fluid was collected 2, 6 and 24 hours after the end of infusion on day 7. Urine was collected the day prior to the first drug dose (day 0) and again 2 hours after the end of the infusion on days 3 and 7. Foals were sedated with xylazine hydrochloride (1.1 mg/kg bwt IV) and anesthetized with ketamine (2.2 mg/kg bwt IV) to allow passage of a urinary catheter using aseptic techniques. Urinalysis was performed and urine and concurrently obtained plasma samples were submitted for measurement of creatinine, γ-glutamyltransferase (GGT), protein, calcium, chloride, magnesium, sodium, and potassium concentrations. Fractional excretion of electrolytes, urinary GGT to creatinine ratio, and urinary protein to creatinine ratios were calculated. Prior to analysis for gentamicin concentration by LC-MS, urine and plasma samples were centrifuged at 400×g for 10 minutes and the supernatant was frozen at −80° C. until assayed.\nNormality and equality of variance of the data were assessed with use of the Shapiro-Wilk and Levene tests, respectively. Data that were not normally distributed were log or rank transformed. The paired t test or the Wilcoxon rank sum test was used to compare IV pharmacokinetic variables between LF and FG. The effects of drug (LG vs FG), administration route (IV vs nebulized) and the interactions between drug and administration route on PELF and BAL cell pharmacokinetic variables were assessed using a two-way ANOVA for repeated measurement. For study 2, the effects of drug (LG vs FG), time (day 0, day 3, and day 7), and the interactions between drug and time on renal indices were assessed using a two-way ANOVA with one factor repetition (time). When warranted, multiple pairwise comparisons were done by use of the Holm-Sidak test. The paired t test or the Wilcoxon rank sum test was used to compare IV pharmacokinetic variables obtained on day 1 to those obtained on day 7. Significance was set at P<0.05.",
  "key": {"[1]": {"settings": "repeated daily IV dosing, 6 foals per group"}},
  "note": "Marks after values point to notes of the source that are not given here.",
  "data": [
    {"substance": "gentamicin sulfate [Free Gentamicin]", "values": [
      {"measurement": "FE Ca^2+", "setting": "Day 0 (before first dose)", "result": "3.5 ± 3.4", "unit": "%"},
      {"measurement": "FE Cl^−", "setting": "Day 0 (before first dose)", "result": "0.60 ± 0.29", "unit": "%"},
      {"measurement": "FE K^+", "setting": "Day 0 (before first dose)", "result": "10.1 ± 4.9", "unit": "%"},
      {"measurement": "FE Mg^2+", "setting": "Day 0 (before first dose)", "result": "13.9 ± 8.91", "unit": "%"},
      {"measurement": "FE Na^+", "setting": "Day 0 (before first dose)", "result": "0.28 ± 0.4^a %"},
      {"measurement": "Plasma creatinine", "setting": "Day 0 (before first dose)", "result": "116.39 ± 20.48", "unit": "µmol/L"},
      {"measurement": "USG (urine specific gravity)", "setting": "Day 0 (before first dose)", "result": "1.003 ± 0.002"},
      {"measurement": "Urine pH", "setting": "Day 0 (before first dose)", "result": "7.2 ± 0.7"},
      {"measurement": "FE Ca^2+", "setting": "Day 3", "result": "1.9 ± 1.1", "unit": "%"},
      {"measurement": "FE Cl^−", "setting": "Day 3", "result": "0.6 ± 0.2", "unit": "%"},
      {"measurement": "FE K^+", "setting": "Day 3", "result": "18.4 ± 12.2", "unit": "%"},
      {"measurement": "FE Mg^2+", "setting": "Day 3", "result": "11.2 ± 6.5", "unit": "%"},
      {"measurement": "FE Na^+", "setting": "Day 3", "result": "0.12 ± 0.05^a %"},
      {"measurement": "Plasma creatinine", "setting": "Day 3", "result": "120.81 ± 21.41", "unit": "µmol/L"},
      {"measurement": "USG (urine specific gravity)", "setting": "Day 3", "result": "1.008 ± 0.008"},
      {"measurement": "Urine pH", "setting": "Day 3", "result": "6.3 ± 0.8"},
      {"measurement": "difference from baseline (day 0) in urine pH", "setting": "Day 3", "result": "−0.83*"},
      {"measurement": "FE Ca^2+", "setting": "Day 7", "result": "1.6 ± 1.4", "unit": "%"},
      {"measurement": "FE Cl^−", "setting": "Day 7", "result": "0.78 ± 0.19", "unit": "%"},
      {"measurement": "FE K^+", "setting": "Day 7", "result": "16.8 ± 10.6", "unit": "%"},
      {"measurement": "FE Mg^2+", "setting": "Day 7", "result": "9.8 ± 4.7", "unit": "%"},
      {"measurement": "FE Na^+", "setting": "Day 7", "result": "0.27 ± 0.12^b %"},
      {"measurement": "Plasma creatinine", "setting": "Day 7", "result": "117.87 ± 24.79", "unit": "µmol/L"},
      {"measurement": "USG (urine specific gravity)", "setting": "Day 7", "result": "1.002 ± 0.001"},
      {"measurement": "Urine pH", "setting": "Day 7", "result": "6.3 ± 0.3"},
      {"measurement": "difference from baseline (day 0) in urine pH", "setting": "Day 7", "result": "−1.67*"},
      {"measurement": "casts on urine sediment analysis", "setting": "day 7, 6 foals per group", "result": "One foal"},
      {"measurement": "mild self-limiting diarrhea during treatment", "setting": "[1]", "result": "One foal"},
      {"measurement": "thrombophlebitis", "setting": "[1]", "result": 2, "unit": "foals"}
    ]}
  ]
}
